Measured values published in ChEMBL document CHEMBL4417638, “Novel cyclic peptides and uses thereof” (2018).
Activity calls are given as the source filed them. No cut-off for these calls is given here. Numbered stars: 1 amine (or outer) side, 2 acyl side, 3 side chain; on linkers, the order of the positions; unused ones are H or OH. Square brackets hold non-standard residues; d marks the D form. Peptide text beside a SMILES is read from it. azaTyr = O=C(N(Cc1ccc(O)cc1)N[*:1])[*:2]

Assays:
RAW264.7 [1] = assay: Inhibition of R-FSL-1-induced CCL2 production in mouse RAW264.7 cells at 10 uM pre-incubated for 30 mins before R-FSL-1 stimulation for 4 hrs by ELISA; type: functional, cell-based
Mus musculus [2] = assay: Anti-atherosclerotic activity in atherogenic diet fed apoE-/- mouse assessed as reduction in aortic lesions at 300 nmol/kg, sc dosed daily for 8 weeks from 12 weeks of age relative to control; type: functional
RAW264.7 [3] = assay: Inhibition of R-FSL-1-induced nitric oxide production in mouse RAW264.7 cells at 10 uM pre-incubated for 1 hr before R-FSL-1 stimulation by fluorescence based assay relative to control; type: functional
RAW264.7 [4] = assay: Inhibition of R-FSL-1-induced TNFalpha production in mouse RAW264.7 cells at 10 uM pre-incubated for 30 mins before R-FSL-1 stimulation for 4 hrs by ELISA; type: functional, cell-based
Platelet glycoprotein 4 = Platelet glycoprotein 4 (Rattus norvegicus, UniProt Q07969); assay: Displacement of [125]-Tyr-Bpa-Ala-Hexarelin from CD36 in Sprague-Dawley rat heart membranes incubated for 60 mins; type: cell membranes
Mus musculus [5] = assay: (§1) Protection against photoreceptor degeneration in mouse model of intense blue light-induced dry age related macular degeneration assessed as preservation of ONL thickness at 289 nmol/kg, sc starting one day after start of blue-light exposure for 7 consecutive days; type: functional, organism-based
Mus musculus [6] = assay: as §1, with “reduction in subretinal inflammation by measuring reduction in IL-1p-expressing immune cell infiltration in retina” for “preservation of ONL thickness”; type: functional, organism-based
BMDM [7] = assay: Inhibition of R-FSL-1-induced IL-1beta production in C57BL/6 mouse BMDM at 10 pM to 1 uM pre-incubated for 30 mins before R-FSL-1 stimulation for 4 hrs by ELISA; type: functional, cell-based
BMDM [8] = assay: Inhibition of R-FSL-1-induced TNFalpha production in C57BL/6 mouse BMDM at 10 pM to 1 uM pre-incubated for 30 mins before R-FSL-1 stimulation for 4 hrs by ELISA; type: functional, cell-based
Mus musculus [9] = assay: as §1, with “improvement” for “preservation”, “retinal function by measuring increase in a-wave and b-wave amplitudes” for “ONL thickness”, “days by electroretinography analysis” for “days”; type: functional, organism-based

Platelet glycoprotein 4, sequence (Q07969 whole entry): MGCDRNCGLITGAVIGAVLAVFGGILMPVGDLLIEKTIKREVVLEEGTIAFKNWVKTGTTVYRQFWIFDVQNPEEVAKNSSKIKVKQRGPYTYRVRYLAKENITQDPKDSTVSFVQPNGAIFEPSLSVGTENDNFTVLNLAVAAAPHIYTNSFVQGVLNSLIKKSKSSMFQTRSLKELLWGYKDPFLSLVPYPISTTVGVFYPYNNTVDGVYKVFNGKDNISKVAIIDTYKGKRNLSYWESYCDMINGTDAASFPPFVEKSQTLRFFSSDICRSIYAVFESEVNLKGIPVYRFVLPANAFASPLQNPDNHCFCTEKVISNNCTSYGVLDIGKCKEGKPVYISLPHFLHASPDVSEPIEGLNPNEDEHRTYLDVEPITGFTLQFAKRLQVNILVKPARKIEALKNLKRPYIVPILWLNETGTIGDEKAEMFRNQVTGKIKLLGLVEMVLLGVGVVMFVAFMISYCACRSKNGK

SMILES	inhibition (RAW264.7 [1])	inhibition (RAW264.7 [4])	inhibition (RAW264.7 [3])	also measured
C=CCN1CC#CCN(N)C(=O)N[C@H](Cc2c[nH]c3ccccc23)C(=O)N[C@@H](C)C(=O)N[C@@H](Cc2c[nH]c3ccccc23)C(=O)N[C@H](Cc2ccccc2)C(=O)N[C@H](C(N)=O)CCCC1	inactive	inactive		inhibition (Mus musculus [2]): Active; inhibition at 10 µM (RAW264.7 [3]): 80%
C=CCN1CC#CCN(NC(C)=O)C(=O)N[C@H](Cc2c[nH]c3ccccc23)C(=O)N[C@@H](C)C(=O)N[C@@H](Cc2c[nH]c3ccccc23)C(=O)N[C@H](Cc2ccccc2)C(=O)N[C@H](C(N)=O)CCCC1	Active	Active		inhibition (Mus musculus [2]): Active; inhibition at 10 µM (RAW264.7 [3]): 80%
C=CCN1CC#CCN(NC(=O)CN)C(=O)N[C@H](Cc2c[nH]c3ccccc23)C(=O)N[C@@H](C)C(=O)N[C@@H](Cc2c[nH]c3ccccc23)C(=O)N[C@H](Cc2ccccc2)C(=O)N[C@H](C(N)=O)CCCC1				IC50 (Platelet glycoprotein 4): 12.9 µM
CN1CC#CCN(NC(=O)[C@@H](Cc2c[nH]c3ccccc23)NC(=O)[C@@H](N)Cc2cnc[nH]2)C(=O)N[C@@H](Cc2c[nH]c3ccccc23)C(=O)N[C@H](Cc2ccccc2)C(=O)N[C@H](C(N)=O)CCCC1	inactive	inactive		
C=CCN1CC#CC[C@H](NC(=O)[C@H](C)N)C(=O)N[C@@H](C)C(=O)N[C@@H](Cc2c[nH]c3ccccc23)C(=O)N[C@H](Cc2ccccc2)C(=O)N[C@H](C(N)=O)CCCC1			Active	
C=CCN1CC#CC[C@H](NC(=O)[C@H](C)N)C(=O)N[C@H](Cc2c[nH]c3ccccc23)C(=O)N[C@@H](C)C(=O)N[C@@H](Cc2c[nH]c3ccccc23)C(=O)N[C@H](Cc2ccccc2)C(=O)N[C@H](C(N)=O)CCCC1			Active	
C=CCN1CC#CCN(NC(=O)[C@H](C)N)C(=O)N[C@H](Cc2c[nH]c3ccccc23)C(=O)N[C@@H](C)C(=O)N[C@@H](Cc2c[nH]c3ccccc23)C(=O)N[C@H](Cc2ccccc2)C(=O)N[C@H](C(N)=O)CCCC1	Active	Active	Active	Activity (Mus musculus [5]): Active; Activity (Mus musculus [6]): Active; inhibition (BMDM [7]): Active; inhibition (BMDM [8]): Active; Activity (Mus musculus [9]): Active
C[C@@H]1NC(=O)[C@@H](Cc2c[nH]c3ccccc23)NC(=O)N(NC(=O)CN)CC#CCN(CC2CC2)CCCC[C@@H](C(N)=O)NC(=O)[C@@H](Cc2ccccc2)NC(=O)[C@H](Cc2c[nH]c3ccccc23)NC1=O			Active	IC50 (Platelet glycoprotein 4): 0.98 µM
C=CCN1CC#CCN(NC(=O)[C@@H](Cc2c[nH]c3ccccc23)NC(=O)[C@@H](N)Cc2cnc[nH]2)C(=O)N[C@@H](Cc2c[nH]c3ccccc23)C(=O)N[C@H](Cc2ccccc2)C(=O)N[C@H](C(N)=O)CCCC1	Active	Active	Active	
C=CCN1CC#CCN(NC(=O)[C@H](C)N)C(=O)N[C@H](Cc2c[nH]c3ccccc23)C(=O)N[C@@H](C)C(=O)N[C@H](C(=O)N[C@H](Cc2ccccc2)C(=O)N[C@@H](CCCCN)C(N)=O)CCCC1			Active	
CCCN1CC#CCN(NC(=O)CN)C(=O)N[C@H](Cc2c[nH]c3ccccc23)C(=O)N[C@@H](C)C(=O)N[C@@H](Cc2c[nH]c3ccccc23)C(=O)N[C@H](Cc2ccccc2)C(=O)N[C@H](C(N)=O)CCCC1			Active	IC50 (Platelet glycoprotein 4): 1.49 µM
C[C@H](NC(=O)[C@@H](Cc1c[nH]c2ccccc12)NC(=O)[C@@H](N)Cc1cnc[nH]1)C(=O)NN(Cc1ccc(O)cc1)C(=O)N[C@H](Cc1ccccc1)C(=O)N[C@@H](CCCCN)C(N)=O (H-H[dW]A[azaTyr][dF]K-NH2)	Active	Active		inhibition (Mus musculus [2]): Active
C=CCN1CC#CCN(NC(=O)[C@H](C)NC(C)=O)C(=O)N[C@H](Cc2c[nH]c3ccccc23)C(=O)N[C@@H](C)C(=O)N[C@@H](Cc2c[nH]c3ccccc23)C(=O)N[C@H](Cc2ccccc2)C(=O)N[C@H](C(N)=O)CCCC1	Active	Active		inhibition (Mus musculus [2]): Active; inhibition at 10 µM (RAW264.7 [3]): 80%
C=CCN1CC#CCN(NC(=O)[C@@H](C)N)C(=O)N[C@H](Cc2c[nH]c3ccccc23)C(=O)N[C@@H](C)C(=O)NN(Cc2ccc(OC)cc2)C(=O)N[C@H](Cc2ccccc2)C(=O)N[C@H](C(N)=O)CCCC1			Active	
C=CCN1CC#CCN(NC(=O)[C@H](C)N)C(=O)N[C@@H](C)C(=O)N[C@@H](Cc2c[nH]c3ccccc23)C(=O)N[C@H](Cc2ccccc2)C(=O)N[C@H](C(N)=O)CCCC1	Active	Active	Active	
